Laboratory results taken from patent publication US20250320213A1, “Nitrogen-Containing Heterocyclic Compounds” (Pfizer Inc., priority 2024, published 2025).

Target: T1, STAT6 (Homo sapiens, UniProt P42226)
T1 construct: stably transfected HaCaT keratinocyte cell line, which expresses NanoLuc luciferase reporter gene under the transcriptional control of the STAT6 responsive promoter; endogenous in cells; host or cells: HaCaT keratinocyte reporter cell line (stably transfected with a NanoLuc reporter)
T1 sequence (P42226 1-847): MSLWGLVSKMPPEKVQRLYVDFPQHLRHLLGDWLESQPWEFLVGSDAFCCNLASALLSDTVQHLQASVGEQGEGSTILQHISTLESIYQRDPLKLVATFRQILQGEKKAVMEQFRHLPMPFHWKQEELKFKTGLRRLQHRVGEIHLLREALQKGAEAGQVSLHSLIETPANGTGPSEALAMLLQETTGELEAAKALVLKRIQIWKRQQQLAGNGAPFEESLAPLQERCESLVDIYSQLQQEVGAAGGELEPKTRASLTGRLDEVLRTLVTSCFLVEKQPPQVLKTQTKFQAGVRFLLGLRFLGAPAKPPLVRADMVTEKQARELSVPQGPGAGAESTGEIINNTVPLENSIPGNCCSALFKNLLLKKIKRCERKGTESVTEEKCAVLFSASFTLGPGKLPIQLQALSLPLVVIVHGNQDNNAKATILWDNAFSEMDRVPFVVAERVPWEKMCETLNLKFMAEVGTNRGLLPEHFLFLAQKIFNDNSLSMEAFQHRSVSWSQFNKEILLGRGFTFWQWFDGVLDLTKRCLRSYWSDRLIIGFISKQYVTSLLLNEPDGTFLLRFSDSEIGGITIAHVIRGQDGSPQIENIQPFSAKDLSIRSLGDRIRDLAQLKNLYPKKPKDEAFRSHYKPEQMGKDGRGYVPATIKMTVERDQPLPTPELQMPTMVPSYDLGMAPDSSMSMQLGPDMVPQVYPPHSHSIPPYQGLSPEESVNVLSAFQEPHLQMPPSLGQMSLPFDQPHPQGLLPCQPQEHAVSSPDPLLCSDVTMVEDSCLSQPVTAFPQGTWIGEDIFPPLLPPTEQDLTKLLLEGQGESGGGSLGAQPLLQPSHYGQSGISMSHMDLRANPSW
Assay: STAT6 Reporter Luciferase Assay (IL-13 stimulated HaCaT keratinocyte NanoLuc reporter cells)
Type: cell-based
Conditions: IL-13 stimulated HaCaT STAT6 NanoLuc reporter cells; read-out: Reporter EC50
Summary of the method: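 Compounds were tested as 11-point, 4-fold series in duplicate, applied for 2 h at 37 °C in low-serum (2% FBS) DMEM. The cells were a stable HaCaT line with NanoLuc under a STAT6-responsive IL-13Ra2 promoter. After 4 h with 0.12 nM IL-13, Nano-Glo luminescence was measured.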

Structure (SMILES) | EC50
CC(C)n1nc(C(=O)NCc2ccc(NC(=O)N(C)C)cc2)c2c1CCN(c1ccc(C(=O)N3CC(=O)NC(C)(C)C3)cn1)C2 [Example 294, 5-(5-(3,3-dimethyl-5-oxopiperazine-1-carbonyl)pyridin-2-yl)-N-(4-(3,3-dimethylureido)benzyl)-1-isopropyl-4,5,6,7-tetrahydro-1H-pyrazolo[4,3-c]pyridine-3-carboxamide] | 961 nM
CC(C)n1nc(C(=O)NCc2ccc(NC(=O)N(C)C)cc2)c2c1CCN(c1ccc(C(=O)N3CCC(O)CC3)cn1)C2 [Example 295, N-(4-(3,3-dimethylureido)benzyl)-5-(5-(4-hydroxypiperidine-1-carbonyl)pyridin-2-yl)-1-isopropyl-4,5,6,7-tetrahydro-1H-pyrazolo[4,3-c]pyridine-3-carboxamide] | 310 nM
CC(=O)N1C[C@@H]2CN(C(=O)c3ccc(N4CCc5c(c(C(=O)NCc6ccc(NC(=O)N(C)C)cc6)nn5C(C)C)C4)nc3)C[C@@H]2C1 [Example 296, 5-(5-((3aR,6aS)-5-acetyloctahydropyrrolo[3,4-c]pyrrole-2-carbonyl)pyridin-2-yl)-N-(4-(3,3-dimethylureido)benzyl)-1-isopropyl-4,5,6,7-tetrahydro-1H-pyrazolo[4,3-c]pyridine-3-carboxamide] | 523 nM
CC(C)n1nc(C(=O)NCc2ccc(NC(=O)N(C)C)cc2)c2c1CCN(c1ccc(C(=O)N3CC[C@@H](C#N)C3)cn1)C2 [Example 297, (R)-5-(5-(3-cyanopyrrolidine-1-carbonyl)pyridin-2-yl)-N-(4-(3,3-dimethylureido)benzyl)-1-isopropyl-4,5,6,7-tetrahydro-1H-pyrazolo[4,3-c]pyridine-3-carboxamide] | 225 nM
CC(C)n1nc(C(=O)NCc2ccc(NC(=O)N(C)C)cc2)c2c1CCN(c1ccc(C(=O)N3CC4(CCC(=O)N4)C3)cn1)C2 [Example 298, N-(4-(3,3-dimethylureido)benzyl)-1-isopropyl-5-(5-(6-oxo-2,5-diazaspiro[3.4]octane-2-carbonyl)pyridin-2-yl)-4,5,6,7-tetrahydro-1H-pyrazolo[4,3-c]pyridine-3-carboxamide] | 2540 nM
CC(=O)N1[C@H](C)CN(C(=O)c2ccc(N3CCc4c(c(C(=O)NCc5ccc(NC(=O)N(C)C)cc5)nn4C(C)C)C3)nc2)C[C@@H]1C [Example 299, 5-(5-((3S,5R)-4-acetyl-3,5-dimethylpiperazine-1-carbonyl)pyridin-2-yl)-N-(4-(3,3-dimethylureido)benzyl)-1-isopropyl-4,5,6,7-tetrahydro-1H-pyrazolo[4,3-c]pyridine-3-carboxamide] | 241 nM
CC(C)n1nc(C(=O)NCc2ccc(NC(=O)N(C)C)cc2)c2c1CCN(c1ccc(C(=O)N3CC4(CC(=O)N(C)C4)C3)cn1)C2 [Example 300, N-(4-(3,3-dimethylureido)benzyl)-1-isopropyl-5-(5-(6-methyl-7-oxo-2,6-diazaspiro[3.4]octane-2-carbonyl)pyridin-2-yl)-4,5,6,7-tetrahydro-1H-pyrazolo[4,3-c]pyridine-3-carboxamide] | 1420 nM
[2H]C([2H])([2H])N(C(=O)Nc1ccc(CNC(=O)c2nn(C(C)C)c3c2CN(c2ccc(C(=O)N(C)C)cc2)C[C@@H]3C)cc1)C([2H])([2H])[2H] [Example 315, (S)-N-(4-(3,3-bis(methyl-d3)ureido)benzyl)-5-(4-(dimethylcarbamoyl)phenyl)-1-isopropyl-7-methyl-4,5,6,7-tetrahydro-1H-pyrazolo[4,3-c]pyridine-3-carboxamide] | 2 nM
CC(C)n1nc(C(=O)NCc2ccc(NC(=O)N(C)C)cc2)c2c1CCN(c1ccc(C(=O)N3CC(=O)N[C@H](C)C3)cn1)C2 [Example 325, (R)-N-(4-(3,3-dimethylureido)benzyl)-1-isopropyl-5-(5-(3-methyl-5-oxopiperazine-1-carbonyl)pyridin-2-yl)-4,5,6,7-tetrahydro-1H-pyrazolo[4,3-c]pyridine-3-carboxamide] | 710 nM
CC(C)n1nc(C(=O)NCc2ccc(NC(=O)N(C)C)cc2)c2c1CCN(c1ccc(C(=O)N3CC4(CCO4)C3)cn1)C2 [Example 326, 5-(5-(1-oxa-6-azaspiro[3.3]heptane-6-carbonyl)pyridin-2-yl)-N-(4-(3,3-dimethylureido)benzyl)-1-isopropyl-4,5,6,7-tetrahydro-1H-pyrazolo[4,3-c]pyridine-3-carboxamide] | 1280 nM
CC(C)n1nc(C(=O)NCc2ccc(NC(=O)N(C)C)cc2)c2c1CCN(c1ccc(C(=O)N3CC4(CNC(=O)C4)C3)cn1)C2 [Example 327, N-(4-(3,3-dimethylureido)benzyl)-1-isopropyl-5-(5-(7-oxo-2,6-diazaspiro[3.4]octane-2-carbonyl)pyridin-2-yl)-4,5,6,7-tetrahydro-1H-pyrazolo[4,3-c]pyridine-3-carboxamide] | 3200 nM
CC(C)n1nc(C(=O)NCc2ccc(NC(=O)N(C)C)cc2)c2c1CCN(c1ccc(C(=O)N3CC(=O)NCC3(C)C)cn1)C2 [Example 328, 5-(5-(2,2-dimethyl-5-oxopiperazine-1-carbonyl)pyridin-2-yl)-N-(4-(3,3-dimethylureido)benzyl)-1-isopropyl-4,5,6,7-tetrahydro-1H-pyrazolo[4,3-c]pyridine-3-carboxamide] | 266 nM
CC(C)n1nc(C(=O)NCc2ccc(NC(=O)N(C)C)cc2)c2c1CCN(c1ccc(C(=O)N3CCC4(CCC(=O)N4)CC3)cn1)C2 [Example 329, N-(4-(3,3-dimethylureido)benzyl)-1-isopropyl-5-(5-(2-oxo-1,8-diazaspiro[4.5]decane-8-carbonyl)pyridin-2-yl)-4,5,6,7-tetrahydro-1H-pyrazolo[4,3-c]pyridine-3-carboxamide] | 1050 nM
CC(=O)NC1(C)CN(C(=O)c2ccc(N3CCc4c(c(C(=O)NCc5ccc(NC(=O)N(C)C)cc5)nn4C(C)C)C3)nc2)C1 [Example 330, 5-(5-(3-acetamido-3-methylazetidine-1-carbonyl)pyridin-2-yl)-N-(4-(3,3-dimethylureido)benzyl)-1-isopropyl-4,5,6,7-tetrahydro-1H-pyrazolo[4,3-c]pyridine-3-carboxamide] | 1980 nM
CC(C)n1nc(C(=O)NCc2ccc(NC(=O)N(C)C)cc2)c2c1CCN(c1ccc(C(=O)N(C)CCO)cn1)C2 [Example 332, N-(4-(3,3-dimethylureido)benzyl)-5-(5-((2-hydroxyethyl)(methyl)carbamoyl)pyridin-2-yl)-1-isopropyl-4,5,6,7-tetrahydro-1H-pyrazolo[4,3-c]pyridine-3-carboxamide] | 160 nM
CC(C)n1nc(C(=O)NCc2ccc(NC(=O)N(C)C)cc2)c2c1CCN(c1ccc(C(=O)N3Cc4cnn(C)c4C3)cn1)C2 [Example 363, N-(4-(3,3-dimethylureido)benzyl)-1-isopropyl-5-(5-(1-methyl-1,4,5,6-tetrahydropyrrolo[3,4-c]pyrazole-5-carbonyl)pyridin-2-yl)-4,5,6,7-tetrahydro-1H-pyrazolo[4,3-c]pyridine-3-carboxamide] | 7 nM
CC(C)n1nc(C(=O)NCc2ccc(NC(=O)N(C)C)cc2)c2c1CCN(c1ccc(C(=O)N3CCc4nn(C)cc4C3)cn1)C2 [Example 364, N-(4-(3,3-dimethylureido)benzyl)-1-isopropyl-5-(5-(2-methyl-4,5,6,7-tetrahydro-2H-pyrazolo[4,3-c]pyridine-5-carbonyl)pyridin-2-yl)-4,5,6,7-tetrahydro-1H-pyrazolo[4,3-c]pyridine-3-carboxamide] | 20 nM
Cc1nc2c(s1)CN(C(=O)c1ccc(N3CCc4c(c(C(=O)NCc5ccc(NC(=O)N(C)C)cc5)nn4C(C)C)C3)nc1)CC2 [Example 365, N-(4-(3,3-dimethylureido)benzyl)-1-isopropyl-5-(5-(2-methyl-4,5,6,7-tetrahydrothiazolo[5,4-c]pyridine-5-carbonyl)pyridin-2-yl)-4,5,6,7-tetrahydro-1H-pyrazolo[4,3-c]pyridine-3-carboxamide] | 6 nM
CC(C)n1nc(C(=O)NCc2ccc(NC(=O)N(C)C)cc2)c2c1CCN(c1ccc(C(=O)N3CCc4nccnc4C3)cn1)C2 [Example 366, N-(4-(3,3-dimethylureido)benzyl)-1-isopropyl-5-(5-(5,6,7,8-tetrahydropyrido[3,4-b]pyrazine-6-carbonyl)pyridin-2-yl)-4,5,6,7-tetrahydro-1H-pyrazolo[4,3-c]pyridine-3-carboxamide] | 29 nM
